# Reference: ChEMBL document CHEMBL1147725, “Identification and biological characterization of 6-aryl-7-isopropylquinazolinones as novel TRPV1 antagonists that are effective in models of chronic pain” (J Med Chem, 2006)
# Activity calls are given as the source filed them. The calls are words filed in the database; no cut-off is given here.
# Legend:
# [1] = target: Transient receptor potential cation channel subfamily V member 1 (Homo sapiens, UniProt Q8NER1); assay: Inhibition of calcium influx evoked by capsaicin in human TRPV1 expressing cells by fluorescence assay; assay type: functional
# [2] = target: Transient receptor potential cation channel subfamily V member 1 (Rattus norvegicus) (UniProt O35433); assay: Inhibition of calcium influx evoked by capsaicin in rat TRPV1 expressing cells by fluorescence assay; assay type: functional, cell-based
# Sequence of Transient receptor potential cation channel subfamily V member 1 (Rattus norvegicus) (O35433 whole entry): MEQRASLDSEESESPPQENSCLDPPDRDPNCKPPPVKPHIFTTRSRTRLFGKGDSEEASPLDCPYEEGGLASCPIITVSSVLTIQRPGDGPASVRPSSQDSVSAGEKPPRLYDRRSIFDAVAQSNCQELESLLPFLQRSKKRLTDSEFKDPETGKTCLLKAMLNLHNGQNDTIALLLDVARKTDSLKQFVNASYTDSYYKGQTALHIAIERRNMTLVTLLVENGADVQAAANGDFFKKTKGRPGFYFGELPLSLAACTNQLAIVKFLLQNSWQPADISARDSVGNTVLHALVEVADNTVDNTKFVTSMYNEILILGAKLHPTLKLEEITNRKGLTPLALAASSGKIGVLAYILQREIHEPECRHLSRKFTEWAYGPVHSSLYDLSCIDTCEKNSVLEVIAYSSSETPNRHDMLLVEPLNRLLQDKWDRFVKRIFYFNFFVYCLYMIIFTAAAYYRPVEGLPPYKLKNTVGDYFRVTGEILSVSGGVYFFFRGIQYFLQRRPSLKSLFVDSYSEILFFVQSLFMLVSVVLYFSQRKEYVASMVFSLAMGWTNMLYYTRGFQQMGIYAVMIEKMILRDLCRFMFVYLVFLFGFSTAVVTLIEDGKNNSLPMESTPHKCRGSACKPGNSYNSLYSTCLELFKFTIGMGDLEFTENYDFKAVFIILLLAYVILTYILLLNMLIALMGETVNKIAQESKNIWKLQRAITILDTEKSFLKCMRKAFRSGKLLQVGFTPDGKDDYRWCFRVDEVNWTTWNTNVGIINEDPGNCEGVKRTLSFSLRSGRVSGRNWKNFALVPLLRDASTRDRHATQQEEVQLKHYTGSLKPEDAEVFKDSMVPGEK
# Sequence of Transient receptor potential cation channel subfamily V member 1 (Q8NER1 whole entry): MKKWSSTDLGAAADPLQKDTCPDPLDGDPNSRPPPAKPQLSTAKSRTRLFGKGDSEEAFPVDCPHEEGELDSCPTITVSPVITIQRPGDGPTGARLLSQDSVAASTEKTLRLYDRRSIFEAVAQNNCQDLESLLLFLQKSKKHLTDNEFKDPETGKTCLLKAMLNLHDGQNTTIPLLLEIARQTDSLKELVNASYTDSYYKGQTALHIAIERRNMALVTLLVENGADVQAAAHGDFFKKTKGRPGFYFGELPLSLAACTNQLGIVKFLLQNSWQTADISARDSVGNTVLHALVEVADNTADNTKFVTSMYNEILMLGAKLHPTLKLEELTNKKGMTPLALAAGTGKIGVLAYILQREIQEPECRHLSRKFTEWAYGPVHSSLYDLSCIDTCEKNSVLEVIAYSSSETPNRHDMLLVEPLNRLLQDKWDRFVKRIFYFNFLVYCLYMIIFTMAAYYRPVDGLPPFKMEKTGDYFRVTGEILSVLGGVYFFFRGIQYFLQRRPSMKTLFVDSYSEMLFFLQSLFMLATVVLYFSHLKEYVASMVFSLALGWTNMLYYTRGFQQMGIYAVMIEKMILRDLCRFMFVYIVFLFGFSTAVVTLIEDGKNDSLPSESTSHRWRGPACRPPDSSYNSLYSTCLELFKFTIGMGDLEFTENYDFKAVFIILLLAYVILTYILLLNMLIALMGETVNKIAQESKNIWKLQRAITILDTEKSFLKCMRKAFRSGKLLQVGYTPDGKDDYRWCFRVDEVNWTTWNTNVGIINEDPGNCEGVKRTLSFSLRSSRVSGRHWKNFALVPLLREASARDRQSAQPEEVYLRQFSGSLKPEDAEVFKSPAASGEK
Structure (SMILES),Activity [1],Activity [2],IC50 [1] [nM]
CC(C)(C)c1nc2nc(S)nc(O)c2cc1-c1ccc(Cl)cc1,inactive,inactive,
COc1cc(Cl)cc(-c2cc3c(O)nc(C)nc3cc2C(C)C)c1,,,100
COCCOc1cc(-c2cc3c(=O)[nH]c(C)nc3cc2C(C)C)ccc1Cl,,,216

# The remaining molecules from weak to strong by IC50 [1], led by results:
Activity [1],Activity [2],IC50 [1] [nM],Structure (SMILES)
,,40,CCCOc1cc(-c2cc3c(=O)[nH]c(C)nc3cc2C(C)C)ccc1Cl
,,31,Cc1nc(O)c2cc(-c3ccc4c(c3)OCO4)c(C(C)C)cc2n1
,,12,CCOc1cc(-c2cc3c(=O)[nH]c(C)nc3cc2C(C)C)ccc1Cl
